According to patent publication US20110092469A1, “Quinone derivative 2,3-dimethoxy-5-methyl-6-(10-hydroxydecyl)-1,4-benzoquinone for the treatment of respiratory illness in muscular dystrophy” (SANTHERA PHARMACEUTICALS (SCHWEIZ) AG, priority 2008, published 2011):

System: Duchenne Muscular Dystrophy (DMD) patients
Test: Double-blind, placebo-controlled, randomised clinical trial: pulmonary function testing in DMD patients
Type: in vivo, human
Procedure: Efficacy of idebenone on respiratory parameters in Duchenne Muscular Dystrophy (DMD) patients was assessed in a double-blind, placebo-controlled, randomised parallel group, clinical trial conducted in one singe clinical center. DMD patients at age 8 to 16 years were treated with idebenone or placebo over a period of 52 weeks. After written informed consent was obtained from the patient and the patient's parent/legal guardian, patients who met the protocol eligibility criteria were enrolled at the study centre and randomised to daily treatment of idebenone (150 mg, 3× daily; total daily dose of 450 mg) or placebo (3× daily). Efficacy was assessed at baseline and at weeks 26 and 52.
A total of 21 patients were enrolled, 13 patients were randomised to treatment with idebenone and 8 randomised to treatment with placebo.
Idebenone was formulated as a round biconvex shaped, film-coated orange tablet, with a 10 mm diameter, containing 150 mg of idebenone and Lactose Monohydrate, Microcrystalline Cellulose, Croscarmellose Sodium, Povidone (Plasdone® K25), Magnesium Stearate and Silicon Dioxide as excipients. The tablet is manufactured by a wet granulation process performed with a high-shear granulator, followed by compression on a rotary tabletting machine and film-coating of the cores in a perforated pan coater. The composition of the placebo is based on the composition of the 150 mg film-coated tablet. The drug substance and the excipients have been replaced by a mixture of lactose monohydrate and microcrystalline cellulose. The composition of the coating remained constant. Placebo tablets are manufactured by direct compression, followed by film-coating.
Both idebenone (150 mg) and matching placebo were administered as an oral tablet. Patients were to take 1 tablet, 3 times a day with meals, for 12 months (52 weeks).
Pulmonary function testing was performed by one clinical evaluator (physical therapist) with longstanding expertise in the assessment of children with neuromuscular diseases, using state of the art equipment and methods. Testing was done with the patient sitting, with a standardized order of testing. Lung volumes (FVC, FEV1) were measured using a handheld Koko spirometer (PDS Instrumentation, Louisville, USA).
Maximum inspiratory (MIP) and expiratory (MEP) pressures were measured using a Magnehelic® manometer (Dwyer Instrument, Michigan City Ind., USA) connected to a mouthpiece. Peak expiratory flow (PEF) measurements were performed using a portable peak flow meter (Mini-Wright peak flow meter, Clement Clarke International). For all parameters the highest values from three consecutive recordings were used in compliance with criteria published by the American Thoracic Society (ATS) (American Thoracic Society. Am J Respir Crit Care Med 1994; 152:1107-1136).
Pulmonary function testing included the following parameters: • Forced vital capacity (FVC) [L] • Forced vital capacity % predicted • Forced expiratory volume in 1 second (FEV1) [L] • FEV1 (% predicted) • Peak expiratory flow (PEF) [L/min] • Peak expiratory flow (% predicted) • Maximal Inspiratory Pressure (MIP) [cmH2O] • Maximal Inspiratory Pressure (% predicted)
For peak expiratory flow conversion from measured values (in Liter) to ‘% predicted’ was performed by the following equation: […]
“peak expiratory flow−422.8+5.288×height”[height in cm]
For maximal inspiratory pressure (MIP) conversion from measured values (in cm H2O) to ‘% predicted’ was performed by the following equation: […]
“MIP−27.020−(4.132×age)−(0.003×height×weight)”[age: years; height: cm body height; weight: kg]
Efficacy of idebenone was determined for the parameters listed above as changes between baseline and end of treatment (at week 52) and comparisons were made between idebenone treated and placebo treated subjects.

[1] = DMD patients, idebenone 450 mg/day oral, N = 13, week 52, mean ± SD

## COC1=C(OC)C(=O)C(CCCCCCCCCCO)=C(C)C1=O [Idebenone, 2,3-dimethoxy-5-methyl-6-(10-hydroxydecyl)-1,4-benzoquinone]
DMD patients 8-16 years, idebenone 150 mg 3x daily oral, N = 13, week 52 (end of treatment), mean ± SD
  FVC (forced vital capacity), Week 52: 2.33 ± 0.67 L
DMD patients on idebenone, 52 week treatment period
  MIP expressed as percent of the predicted value, increase over 52 weeks: 4.8±13.0%
DMD patients on idebenone, difference in change vs placebo statistically significant
  Peak expiratory flow at week 52 compared to baseline (in words): higher at week 52 compared to baseline
DMD patients on idebenone, expressed as more negative number, change clearly different from placebo
  Maximum inspiratory pressure (MIP) over the 52 week treatment period (in words): increased
DMD patients, idebenone 450 mg/day oral, N = 13, change baseline to week 52, mean ± SD, more negative = larger inspiratory force, p 0.173 vs placebo (one-sided)
  MIP, Change Week 52-BL: −7.33 ± 13.0 cmH2O
DMD patients, idebenone 450 mg/day oral, N = 13, change baseline to week 52, mean ± SD, p 0.039 vs placebo (one-sided)
  Peak expiratory flow, Change Week 52-BL: 30.8 ± 54.4 L/min
DMD patients, idebenone 450 mg/day oral, N = 13, change baseline to week 52, mean ± SD, p 0.042 vs placebo (one-sided)
  Peak expiratory flow % predicted, Change Week 52-BL: 2.8 ± 13.8 % predicted
DMD patients, idebenone 450 mg/day oral, N = 13, change baseline to week 52, mean ± SD, p 0.142 vs placebo (one-sided)
  MIP % predicted, Change Week 52-BL: 4.8 ± 13.0 % predicted
DMD patients, idebenone 450 mg/day oral, N = 13, change baseline to week 52, mean ± SD, p 0.471 vs placebo (one-sided)
  FVC, Change Week 52-BL: 0.14 ± 0.31 L
DMD patients, idebenone 450 mg/day oral, N = 13, change baseline to week 52, mean ± SD, p 0.484 vs placebo (one-sided)
  FEV1, Change Week 52-BL: 0.11 ± 0.37 L
DMD patients, idebenone 450 mg/day oral, N = 13, change baseline to week 52, mean ± SD, p 0.651 vs placebo (one-sided)
  FEV1 % predicted, Change Week 52-BL: −2.0 ± 9.2 % predicted
DMD patients, idebenone 450 mg/day oral, N = 13, change baseline to week 52, mean ± SD, p 0.793 vs placebo (one-sided)
  FVC % predicted, Change Week 52-BL: −1.2 ± 6.4 % predicted
[1]
  FEV1 % predicted, Week 52: 74.5 ± 23.88 % predicted
  FEV1 (forced expiratory volume 1 second), Week 52: 2.08 ± 0.71 L
  FVC % predicted, Week 52: 75.3 ± 24.79 % predicted
  MIP % predicted, Week 52: 44.1 ± 13.38 % predicted
  MIP (maximal inspiratory pressure), Week 52: −47.3 ± 14.09 cmH2O
  Peak expiratory flow % predicted, Week 52: 76.9 ± 20.13 % predicted
  Peak expiratory flow, Week 52: 292.3 ± 90.6 L/min
DMD patients, idebenone treatment 52 weeks
  Changes in FVC, FVC % predicted, FEV1 and FEV1 % predicted versus placebo (in words): not different from placebo treatment
